Laboratory results as given in patent US5510379A, “Sulfonate ACAT inhibitors” (priority 1994, dated 1996).
Read-outs that look alike come from different tables or passages of the source.

Experiments:
[1] = target: T1, acyl-CoA: cholesterol acyltransferase (ACAT) (Rattus norvegicus, UniProt Q7TQM4); assay: in vitro ACAT inhibition test in rat liver microsomes (LAI); format: biochemical
T1 construct: tissue preparation containing rat liver microsomes; from tissue; host or cells: rat liver microsomes
T1 sequence (Q7TQM4 1-524): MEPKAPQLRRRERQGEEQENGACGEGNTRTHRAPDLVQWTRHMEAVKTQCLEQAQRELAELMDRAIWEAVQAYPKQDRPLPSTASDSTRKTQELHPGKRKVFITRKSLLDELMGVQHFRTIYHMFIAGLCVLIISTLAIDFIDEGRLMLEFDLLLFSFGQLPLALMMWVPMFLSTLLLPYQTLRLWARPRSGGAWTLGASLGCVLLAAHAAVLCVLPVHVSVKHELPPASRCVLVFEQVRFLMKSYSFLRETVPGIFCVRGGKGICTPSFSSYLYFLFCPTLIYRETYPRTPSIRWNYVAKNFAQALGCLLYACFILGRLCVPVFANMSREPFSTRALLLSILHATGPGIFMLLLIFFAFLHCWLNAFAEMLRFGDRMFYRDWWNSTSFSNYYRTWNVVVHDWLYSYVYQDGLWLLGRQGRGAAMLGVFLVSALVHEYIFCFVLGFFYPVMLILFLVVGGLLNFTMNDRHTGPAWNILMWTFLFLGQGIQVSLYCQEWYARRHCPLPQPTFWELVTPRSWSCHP
Method: The ability of representative compounds of the present invention to inhibit ACAT was measured using an in vitro test more fully described in F.J. Field and R.G. Salone, Biochemica et Biophysica Acta, 772:557-570 (1982). The test assesses the ability of a test compound to inhibit the acylation of cholesterol by oleic acid by measuring the amount of radiolabeled cholesterol oleate formed from radiolabeled oleic acid in a tissue preparation containing rat liver microsomes (designated LAI).

male Sprague-Dawley rats = assay: in vivo screen APCC in cholesterol-fed rats; conditions: Rattus norvegicus, po, 30 mg/kg by gavage, high fat, high cholesterol diet overnight, versus vehicle and diet only, read-out: APCC percent change in total cholesterol (%TC) from control animals
Text: In an in vivo screen designated APCC, male Sprague-Dawley rats (200-225 g body weight) were randomly divided into treatment groups and dosed at 4 PM with either vehicle (CMC/Tween) or suspensions of invention compounds in vehicle. The normal chow diet was then replaced with a high fat, high cholesterol diet (5.5% peanut oil, 1.5% cholesterol, and 0.5% cholic acid). The rats consumed this diet ad libitum during the night and were sacrificed at 8 AM to obtain blood samples for cholesterol analysis using standard procedures. Statistical differences between mean cholesterol values for the same vehicle were determined using analysis of variance followed by Fisher's least significant test. The results of this trial for representative compounds of the present invention also appear in Table I as the percent change in total cholesterol (%TC) from control animals given vehicle and diet only. All compounds in the APCC test reported in Table 1 were administered by gavage at 30 mg/kg.

[2] = rat liver microsomes, formation of radiolabeled cholesterol oleate from radiolabeled oleic acid, read-out: LAI IC50

IC50 [1, 2] [µM]	Compound	change in vivo at 30 mg/kg (male Sprague-Dawley rats) [%]	IC50 [1] [µM]
1.5	CC(C)c1cccc(C(C)C)c1OC(=O)CS(=O)(=O)Oc1c(C(C)C)cccc1C(C)C [Example 8, 2,6-Diisopropylphenyl (2,6-diisopropylphenoxycarbonyl)methylsulfonate]	-21	–
3.6	CSc1ccc(CN(C(=O)CS(=O)(=O)Oc2c(C(C)C)cc(C(C)C)cc2C(C)C)C(C)C)cc1 [Example 7, 2,4,6-Triisopropylphenyl N-isopropyl-N-(4-thiomethylphenylmethyl)carbamoylmethyl sulfonate]	-17	–
1.66	CC(C)c1cc(C(C)C)c(NC(=O)CS(=O)(=O)Oc2c(C(C)C)cccc2C(C)C)c(C(C)C)c1 [Example 6]	-31	–
0.027	CC(C)c1cccc(C(C)C)c1NC(=O)CS(=O)(=O)Oc1c(C(C)C)cccc1C(C)C [Example 10, 2.6-Diisopropylphenyl N-(2,6-diisopropylphenyl)carbamoylmethylsulfonate]	-42	–
1.8	CC(C)c1cccc(C(C)C)c1OS(=O)(=O)CC(=O)NC(c1ccccc1)c1ccccc1 [Example 4, 2,6-Diisopropylphenyl N-diphenylmethylcarbamoylmethyl sulfonate]	-43	–
–	CC(C)c1cccc(C(C)C)c1OS(=O)(=O)CC(=O)O [Example 5, 2,6-Diisopropylphenoxysulfonyl acetic acid]	-31	> 50
3	CCCCCCCCCCCCNC(=O)CS(=O)(=O)Oc1c(C(C)C)cccc1C(C)C [Example 3, 2,6-Diisopropylphenyl N-dodecyl carbamoylmethyl sulfonate]	-3	–
> 5	CC(C)c1cc(C(C)C)c(OS(=O)(=O)CC(=O)N(Cc2ccccc2)Cc2ccccc2)c(C(C)C)c1 [Example 1, 2,4,6-Triisopropylphenyl N,N-dibenzylcarbamoylmethylsulfonate]	-7	–
0.007	CC(C)c1cc(C(C)C)c(OS(=O)(=O)CC(=O)Nc2c(C(C)C)cccc2C(C)C)c(C(C)C)c1 [Example 9]	-61	–
0.79	CC(C)c1cc(C(C)C)c(OS(=O)(=O)CC(=O)NC(c2ccccc2)c2ccccc2)c(C(C)C)c1 [Example 2, 2,4,6-Triisopropylphenyl N-diphenylmethylcarbamoylmethyl sulfonate]	-19	–
